ChEMBL document CHEMBL1201862, “PubChem BioAssay data set” (2004)
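Results reflect a 48-hour exposure of cells in 96-well plates to compound at five concentrations. GI50 marks 50% less growth.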 The source made the active and inactive calls. Rule as the data show it: active = GI50 up to about 1.1 µM and inactive = higher.

Key:
Experiment in all cases: NCI anticancer screen, dose series, 48 h
IGROV-1 = system: IGROV-1
K562 = system: K562
OVCAR-3 = system: OVCAR-3
SK-MEL-5 = system: SK-MEL-5
SK-OV-3 = system: SK-OV-3
UACC-257 = system: UACC-257
BT-549 = system: BT-549
CAKI-1 = system: CAKI-1
M14 = system: M14
KM12 = system: KM12
CCRF-CEM = system: CCRF-CEM
MDA-N = system: MDA-N
COLO 205 = system: COLO 205
RXF 393 = system: RXF 393
TK-10 = system: TK-10
A549 = system: A549
NCI-H460 = system: NCI-H460
SK-MEL-2 = system: SK-MEL-2
NCI-H226 = system: NCI-H226
SNB-75 = system: SNB-75

SMILES	GI50 (IGROV-1)	GI50 (K562)	GI50 (OVCAR-3)	GI50 (SK-MEL-5)	GI50 (SK-OV-3)	GI50 (UACC-257)	GI50 (BT-549)	GI50 (CAKI-1)	GI50 (M14)	GI50 (KM12)	GI50 (CCRF-CEM)	GI50 (MDA-N)	GI50 (COLO 205)	GI50 (RXF 393)	GI50 (TK-10)	GI50 (A549)	GI50 (NCI-H460)	GI50 (SK-MEL-2)	GI50 (NCI-H226)	GI50 (SNB-75)
Nc1cc(C(=O)O)nc(O)n1	> 100 µM (inactive)	> 100 µM (inactive)	> 100 µM (inactive)	> 100 µM (inactive)	> 100 µM (inactive)	> 100 µM (inactive)	> 100 µM (inactive)	> 100 µM (inactive)	> 100 µM (inactive)	> 100 µM (inactive)	> 100 µM (inactive)	> 100 µM (inactive)	> 100 µM (inactive)	> 100 µM (inactive)	> 100 µM (inactive)	> 100 µM (inactive)	> 100 µM (inactive)	> 100 µM (inactive)	> 100 µM (inactive)	
N#C/C(=C\c1ccc(Cl)cc1)c1nc(-c2cc3ccccc3oc2=O)cs1	> 100 µM (inactive)	> 100 µM (inactive)		90.4 µM (inactive)	84.5 µM (inactive)	47.6 µM (inactive)	14.9 µM (inactive)	> 100 µM (inactive)	51.5 µM (inactive)	74.1 µM (inactive)	> 100 µM (inactive)	59.8 µM (inactive)	> 100 µM (inactive)	83 µM (inactive)	26.9 µM (inactive)	86.5 µM (inactive)	42.6 µM (inactive)	> 100 µM (inactive)	39 µM (inactive)	26.9 µM (inactive)
CCCC(=O)OCC1(CO)C/C(=C/CC(C(C)C)C(C)C)C(=O)O1 (stereo unspecified)	> 100 µM (inactive)		> 100 µM (inactive)	54.7 µM (inactive)	> 100 µM (inactive)	> 100 µM (inactive)	> 100 µM (inactive)	> 100 µM (inactive)		44.5 µM (inactive)	> 100 µM (inactive)	> 100 µM (inactive)	> 100 µM (inactive)	> 100 µM (inactive)	> 100 µM (inactive)	> 100 µM (inactive)	> 100 µM (inactive)	> 100 µM (inactive)	> 100 µM (inactive)	> 100 µM (inactive)
COCCOCCOCCC(=O)NC1CC2CCC1(C)C2(C)C (stereo unspecified)	> 100 µM (inactive)	> 100 µM (inactive)	> 100 µM (inactive)	> 100 µM (inactive)	> 100 µM (inactive)	> 100 µM (inactive)	> 100 µM (inactive)	> 100 µM (inactive)	> 100 µM (inactive)	> 100 µM (inactive)	> 100 µM (inactive)	> 100 µM (inactive)	> 100 µM (inactive)	> 100 µM (inactive)	> 100 µM (inactive)	> 100 µM (inactive)	> 100 µM (inactive)		> 100 µM (inactive)	> 100 µM (inactive)
S=C(c1c[nH]c2ccccc12)N1CCCCC1	67.9 µM (inactive)	72.4 µM (inactive)	> 100 µM (inactive)	40 µM (inactive)	> 100 µM (inactive)	> 100 µM (inactive)	92.9 µM (inactive)	> 100 µM (inactive)	> 100 µM (inactive)	> 100 µM (inactive)	89.9 µM (inactive)	> 100 µM (inactive)	> 100 µM (inactive)	62.5 µM (inactive)	> 100 µM (inactive)		> 100 µM (inactive)	> 100 µM (inactive)	> 100 µM (inactive)	
CC1(C)OC(C(C)(C)O)C(C(C)(C)O)O1 (stereo unspecified)	> 100 µM (inactive)	> 100 µM (inactive)		> 100 µM (inactive)	> 100 µM (inactive)	> 100 µM (inactive)	> 100 µM (inactive)	> 100 µM (inactive)	> 100 µM (inactive)	> 100 µM (inactive)	> 100 µM (inactive)	> 100 µM (inactive)	> 100 µM (inactive)	39 µM (inactive)	> 100 µM (inactive)	> 100 µM (inactive)	> 100 µM (inactive)	> 100 µM (inactive)	> 100 µM (inactive)	> 100 µM (inactive)
C/C(=C1/N=C(c2ccccc2)OC1=O)c1ccc(C)cc1	> 100 µM (inactive)	> 100 µM (inactive)	> 100 µM (inactive)	> 100 µM (inactive)	> 100 µM (inactive)	> 100 µM (inactive)	> 100 µM (inactive)	> 100 µM (inactive)	> 100 µM (inactive)	> 100 µM (inactive)	> 100 µM (inactive)	> 100 µM (inactive)	> 100 µM (inactive)	> 100 µM (inactive)	> 100 µM (inactive)	> 100 µM (inactive)	> 100 µM (inactive)	> 100 µM (inactive)	> 100 µM (inactive)	
Cc1ccc(C)c(COCCOCn2cc(N3CCOCC3)c(=O)[nH]c2=O)c1	> 100 µM (inactive)	> 100 µM (inactive)			> 100 µM (inactive)	> 100 µM (inactive)	> 100 µM (inactive)	> 100 µM (inactive)	> 100 µM (inactive)	> 100 µM (inactive)	> 100 µM (inactive)	> 100 µM (inactive)	> 100 µM (inactive)	> 100 µM (inactive)	> 100 µM (inactive)	> 100 µM (inactive)	> 100 µM (inactive)	> 100 µM (inactive)	> 100 µM (inactive)	> 100 µM (inactive)
COC(=O)C(=O)C(C(=O)C(=O)Nc1nc2ccc(C)cc2s1)c1nc2ccc([N+](=O)[O-])cc2nc1O (stereo unspecified)	47.9 µM (inactive)	> 100 µM (inactive)	> 100 µM (inactive)	> 100 µM (inactive)	> 100 µM (inactive)	> 100 µM (inactive)	> 100 µM (inactive)	> 100 µM (inactive)	> 100 µM (inactive)	> 100 µM (inactive)	> 100 µM (inactive)	> 100 µM (inactive)		> 100 µM (inactive)	> 100 µM (inactive)	> 100 µM (inactive)	> 100 µM (inactive)	> 100 µM (inactive)	> 100 µM (inactive)	> 100 µM (inactive)
CC(=O)OC1CCC2C3CCc4c(C)ccc(OS(=O)(=O)c5ccccc5)c4C3CCC12C (stereo unspecified)	38.7 µM (inactive)	5.69 µM (inactive)	7.33 µM (inactive)	3.74 µM (inactive)	34.2 µM (inactive)	73.3 µM (inactive)	23.7 µM (inactive)	24 µM (inactive)			19.1 µM (inactive)	> 100 µM (inactive)	18.6 µM (inactive)	31.1 µM (inactive)	52.1 µM (inactive)		6.61 µM (inactive)	30.8 µM (inactive)	14.8 µM (inactive)	
O=c1c2nn[nH]c2nc2n1CC(c1ccccc1)S2 (stereo unspecified)	> 100 µM (inactive)	> 100 µM (inactive)	> 100 µM (inactive)	> 100 µM (inactive)	> 100 µM (inactive)	> 100 µM (inactive)	> 100 µM (inactive)	13 µM (inactive)		> 100 µM (inactive)	> 100 µM (inactive)	> 100 µM (inactive)	> 100 µM (inactive)	29 µM (inactive)	> 100 µM (inactive)	> 100 µM (inactive)	> 100 µM (inactive)		> 100 µM (inactive)	72.1 µM (inactive)
CC(C)CC(N)C(=O)Nc1ccc2ccccc2c1 (stereo unspecified)	> 100 µM (inactive)	> 100 µM (inactive)	8.2 µM (inactive)	> 100 µM (inactive)	> 100 µM (inactive)	> 100 µM (inactive)	> 100 µM (inactive)	63.1 µM (inactive)	> 100 µM (inactive)	0.316 µM (active)	> 100 µM (inactive)	> 100 µM (inactive)	> 100 µM (inactive)	> 100 µM (inactive)	> 100 µM (inactive)	> 100 µM (inactive)		> 100 µM (inactive)	67.8 µM (inactive)	> 100 µM (inactive)
COc1ccccc1N1C(=O)C2C3c4ccccc4C(OC(C)=O)(c4ccccc43)C2C1=O (stereo unspecified)	> 100 µM (inactive)	> 100 µM (inactive)	> 100 µM (inactive)	> 100 µM (inactive)	> 100 µM (inactive)	> 100 µM (inactive)	49.9 µM (inactive)	> 100 µM (inactive)	> 100 µM (inactive)	77.4 µM (inactive)	> 100 µM (inactive)	> 100 µM (inactive)	> 100 µM (inactive)	> 100 µM (inactive)	> 100 µM (inactive)	> 100 µM (inactive)	> 100 µM (inactive)		> 100 µM (inactive)	17.5 µM (inactive)
CCNc1cc2oc(=O)cc(C(F)(F)F)c2cc1C	> 100 µM (inactive)	> 100 µM (inactive)	> 100 µM (inactive)	> 100 µM (inactive)	> 100 µM (inactive)	> 100 µM (inactive)	> 100 µM (inactive)	> 100 µM (inactive)	> 100 µM (inactive)	> 100 µM (inactive)		> 100 µM (inactive)	> 100 µM (inactive)	> 100 µM (inactive)	> 100 µM (inactive)	> 100 µM (inactive)	> 100 µM (inactive)	> 100 µM (inactive)	> 100 µM (inactive)	27 µM (inactive)
C[C@H](CCC(=O)O)[C@H]1CC[C@H]2[C@@H]3[C@H](O)[C@H](O)[C@@H]4C[C@H](O)CC[C@]4(C)[C@H]3CC[C@]12C [HYOCHOLIC ACID]	> 100 µM (inactive)	> 100 µM (inactive)				> 100 µM (inactive)	> 100 µM (inactive)	> 100 µM (inactive)	> 100 µM (inactive)	> 100 µM (inactive)	> 100 µM (inactive)	> 100 µM (inactive)	> 100 µM (inactive)	> 100 µM (inactive)	> 100 µM (inactive)	> 100 µM (inactive)	> 100 µM (inactive)	> 100 µM (inactive)	> 100 µM (inactive)	> 100 µM (inactive)
